“And” between values parts separate entries of the source, which are not always exact repeats. Equal values may be shown once. Read-outs that look alike come from different tables or passages of the source.
Experiments:
[1] = test system: ATCC strain 43300 Staphylococcus aureus
Procedure: Additional antibiotic was added every 24 hours.
USP<51> Antimicrobial Effectiveness protocol was used as the template experimental paradigm. […] All concentrations were plated out to the 10^−7 dilutionsto ascertain cfu/ml. […] Additional antibiotic was added at the initial concentration every 24 hours.
ATCC strain 43300 Staphylococcus aureus was streaked out for isolations. An isolated colony was chosen, streaked again and incubated. Isolate was chosen and then diluted to a McFarland standard of one. The estimated value was then taken to inoculate tubes containing growth media and 12, 30 or 60 μg/ml oxacillin with approximately 10^5 cfu/ml. These tubes were incubated and plated for counting cfu.
Material was calculated on a 10 ml volume. Sterile oxacillin was added to each experimental condition to a final concentration of 12, 30 or 60 μg/ml antibiotic.
All tubes were then inoculated with a dilution of the selected ATCC strain 43300 Staphylococcus aureus clone giving a final level of colony forming units of 3.3×10^5/ml (log=5.52). The tubes were incubated at 25° C. and mixed periodically. Antibiotic was re-inoculated every 24 hours at the initial concentration to maintain pressure on the organism. Plating was done at 24, 48, 72, and 120 hours. Each condition was plated by diluting 1 ml of growth material into 9 ml of MLB diluent broth. […] This mixture was serial diluted down to 10^−7 with 1 ml placed in triplicate in a sterile petri dish at each dilution point. 20 mls of TSA was added to each dilution, swirled and allowed to solidify. All dilutions were placed in a 35° C. incubator for 24 to 72 hours. Bacterial colonies on each plate were counted and the average taken then changed into log format. Any cfu/ml observed greater than 3.3×10^5 (log=5.5) were recorded as >3.3×10^5.

[2] = test system: ATCC strain 43300 Staphylococcus aureus; remark: listed apart in the source
Procedure: Additional antibiotic was added every 24 hours. The growth periods tested were 24 (FIG. 5), 48, 72, 96 and 120 hours.
USP<51> Antimicrobial Effectiveness protocol was used as the template experimental paradigm. […] All concentrations were plated out to the 10^−7 dilutions to ascertain cfu/ml. […] Additional antibiotic was added at the initial concentration every 24 hours.
ATCC strain 43300 Staphylococcus aureus was streaked out for isolations. An isolated colony was chosen, streaked again and incubated. Isolate was chosen and then diluted to a McFarland standard of one. The estimated value was then taken to inoculate tubes containing growth media and 12, 30 or 60 μg/ml methicillin with approximately 10^5 cfu/ml. These tubes were incubated and plated for counting cfu.
Material was calculated on a 10 ml volume. Sterile methicillin was added to each experimental condition to a final concentration of 12, 30 or 60 μg/ml antibiotic. Lactose Broth positive controls both with and without the 12 μg/ml, 30 μg/ml, 60 μg/ml antibiotic were inoculated with MRSA. […] Tubes were set up in singlet, but plated in triplicate, as described below.
All tubes were then inoculated with a dilution of the selected ATCC strain 43300 Staphylococcus aureus clone giving a final level of colony forming units of 1.49×10^5/ml (log=5.17). The tubes were incubated at 25° C. and mixed periodically. Antibiotic was re-inoculated every 24 hours at the initial concentration to maintain pressure on the organism. Plating was done at 24, 48, 72, and 120 hours. Each condition was plated by diluting 1 ml of growth material into 9 ml of MLB diluent broth. […] This mixture was serial diluted down to 10^−7 with 1 ml placed in triplicate in a sterile petri dish at each dilution point. 20 mls of TSA was added to each dilution, swirled and allowed to solidify. All dilutions were placed in a 35° C. incubator for 24 to 72 hours. Bacterial colonies on each plate were counted and the average taken then changed into log format.

[3] = test system: ATCC strain 43300 Staphylococcus aureus; conditions: 24 hours
Procedure: All concentrations were plated out to the 10^−7 dilutions to ascertain cfu/ml.
ATCC strain 43300 Staphylococcus aureus was streaked out for isolations and 25 clones were picked and diluted to a McFarland standard of one. The estimated value was then taken to inoculate tubes containing growth media and 12, 30 or 60 μg/ml methicillin or oxacillin with around 10^−7 cfu/tube.
Material was calculated on a 10 ml volume. Sterile oxacillin or methicillin was added to each experimental condition to a final concentration of 12, 30 or 60 μg/ml antibiotic.
All tubes were then inoculated with a dilution of the selected ATCC strain 43300 Staphylococcus aureus clone giving a final level of colony forming units of 9.4×10^7/ml (log=7.97). The tubes were incubated at 25° C. and mixed periodically. […] Plating was done at 24 hours. Each condition was plated by diluting 1 ml of growth material into 9 ml of MLB diluent broth. This mixture was serial diluted down to 10^−7, and 1 ml placed in a sterile petri dish at each dilution point. 20 mls of TSA was added to each dilution, swirled and allowed to solidify. All dilutions were placed in a 35° C. incubator for 24 hours. Bacterial colonies on each plate were counted and colony counts changed into log format. A positive and negative control was ascertained.

[4] = 11% MSM, 60 μg/ml oxacillin, 24 hours
[5] = 12% MSM, 12 μg/ml oxacillin, 24 hours
[6] = 12% MSM, 12 μg/ml oxacillin, 48 hours
[7] = 12% MSM, 30 μg/ml oxacillin, 24 hours
[8] = 12% MSM, 60 μg/ml oxacillin, 24 hours
[9] = 13% MSM, 12 μg/ml oxacillin, 24 hours
[10] = 13% MSM, 12 μg/ml oxacillin, 48 hours
[11] = 13% MSM, 30 μg/ml oxacillin, 24 hours
[12] = 13% MSM, 60 μg/ml oxacillin, 24 hours
[13] = 14% MSM, 12 μg/ml oxacillin, 24 hours
[14] = 14% MSM, 12 μg/ml oxacillin, 48 hours
[15] = 14% MSM, 12 μg/ml oxacillin, 72 hours
[16] = 14% MSM, 30 μg/ml oxacillin, 24 hours
[17] = 14% MSM, 60 μg/ml oxacillin, 24 hours
[18] = 15% MSM, 12 μg/ml oxacillin, 24 hours
[19] = 15% MSM, 12 μg/ml oxacillin, 48 hours
[20] = 15% MSM, 30 μg/ml oxacillin, 24 hours
[21] = 15% MSM, 60 μg/ml oxacillin, 24 hours
[22] = 16% MSM, 12 μg/ml oxacillin, 24 hours
[23] = 16% MSM, 12 μg/ml oxacillin, 48 hours
[24] = 16% MSM, 30 μg/ml oxacillin, 24 hours
[25] = 16% MSM, 60 μg/ml oxacillin, 24 hours

## CS(C)(=O)=O [MSM, methylsulfonylmethane]
[1]; [4]
  Average Log: 2.83 Log
  survival: 6.7 × 10^2 cfu/ml and 6.9 × 10^2 cfu/ml
[1]; 11% MSM, 60 μg/ml oxacillin, 48 hours
  Average Log: 2.1 Log
[1]; [5]
  Average Log: 3.85 Log
  survival: 7.0 × 10^3 cfu/ml and 7.3 × 10^3 cfu/ml
[1]; [6]
  Average Log: 2.8 Log
  survival: 3.6 × 10^2 cfu/ml and 4.0 × 10^2 cfu/ml and 4.2 × 10^2 cfu/ml
[1]; 12% MSM, 12 μg/ml oxacillin, 72 hours
  Average Log: 3.1 Log
[1]; [7]
  Average Log: 3.59 Log
  survival: 3.9 × 10^3 cfu/ml
[1]; 12% MSM, 30 μg/ml oxacillin, 48 hours
  Average Log: 2.6 Log
[1]; 12% MSM, 30 μg/ml oxacillin, 72 hours
  Average Log: 2.6 Log
[1]; [8]
  Average Log: 2.86 Log
  survival: 7.3 × 10^2 cfu/ml and 7.1 × 10^2 cfu/ml and 7.5 × 10^2 cfu/ml
[1]; 12% MSM, 60 μg/ml oxacillin, 48 hours
  Average Log: 2.0 Log
[1]; 12% MSM, 60 μg/ml oxacillin, 72 hours
  Average Log: 2.4 Log
[1]; 12%-16% MSM, 12 μg/ml oxacillin, 72 hours
  log reduction in the number of cfu/ml: 1 log
[1]; [9]
  Average Log: 3.95 Log
  survival: 9.0 × 10^3 cfu/ml and 8.7 × 10^3 cfu/ml and 9.2 × 10^3 cfu/ml
[1]; [10]
  Average Log: 2.8 Log
  survival: 6.8 × 10^2 cfu/ml and 5.8 × 10^2 cfu/ml
[1]; 13% MSM, 12 μg/ml oxacillin, 72 hours
  Average Log: 2.7 Log
[1]; [11]
  Average Log: 3.62 Log
  survival: 4.4 × 10^3 cfu/ml and 4.1 × 10^3 cfu/ml and 4.2 × 10^3 cfu/ml
[1]; 13% MSM, 30 μg/ml oxacillin, 48 hours
  Average Log: 2.5 Log
[1]; 13% MSM, 30 μg/ml oxacillin, 72 hours
  Average Log: 1.8 Log
[1]; [12]
  Average Log: 2.80 Log
  survival: 6.3 × 10^2 cfu/ml and 6.0 × 10^2 cfu/ml
[1]; 13% MSM, 60 μg/ml oxacillin, 48 hours
  Average Log: 1.7 Log
[1]; 13% MSM, 60 μg/ml oxacillin, 72 hours
  Average Log: 1 Log
[1]; [13]
  Average Log: 4.00 Log
  survival: 1.00 × 10^4 cfu/ml and 1.02 × 10^4 cfu/ml and 1.01 × 10^4 cfu/ml
[1]; [14]
  Average Log: 1.0 Log
  log reduction in the number of cfu/ml: 4.5 log
  survival: 1.0 × 10^1 cfu/ml and 1.2 × 10^1 cfu/ml and 1.1 × 10^1 cfu/ml
[1]; [15]
  Average Log: 2.0 Log
  log reduction in the number of cfu/ml: 4.5 log
[1]; [16]
  Average Log: 3.78 Log
  survival: 6.1 × 10^3 cfu/ml and 6.0 × 10^3 cfu/ml
[1]; 14% MSM, 30 μg/ml oxacillin, 48 hours
  Average Log: 2.5 Log
[1]; 14% MSM, 30 μg/ml oxacillin, 72 hours
  Average Log: 2.2 Log
[1]; [17]
  Average Log: 2.03 Log
  log reduction in the number of cfu/ml: 3.5 log
  survival: 1.8 × 10^2 cfu/ml and 1.7 × 10^2 cfu/ml
[1]; 14% MSM, 60 μg/ml oxacillin, 48 hours
  Average Log: 2.2 Log
[1]; 14% MSM, 60 μg/ml oxacillin, 72 hours
  Average Log: 1.5 Log
[1]; [18]
  Average Log: 4.11 Log
  survival: 1.35 × 10^4 cfu/ml and 1.30 × 10^4 cfu/ml and 1.29 × 10^4 cfu/ml
[1]; [19]
  Average Log: 3.7 Log
  survival: 5.0 × 10^3 cfu/ml and 4.5 × 10^3 cfu/ml and 4.6 × 10^3 cfu/ml
[1]; 15% MSM, 12 μg/ml oxacillin, 72 hours
  Average Log: 2.3 Log
[1]; [20]
  Average Log: 3.94 Log
  survival: 8.7 × 10^3 cfu/ml and 8.9 × 10^3 cfu/ml and 8.8 × 10^3 cfu/ml
[1]; 15% MSM, 30 μg/ml oxacillin, 48 hours
  Average Log: 2.8 Log
[1]; 15% MSM, 30 μg/ml oxacillin, 72 hours
  Average Log: 2.4 Log
[1]; [21]
  Average Log: 3.81 Log
  survival: 6.6 × 10^3 cfu/ml and 6.2 × 10^3 cfu/ml and 6.4 × 10^3 cfu/ml
[1]; 15% MSM, 60 μg/ml oxacillin, 48 hours
  Average Log: 2.1 Log
[1]; [22]
  Average Log: 3.88 Log
  survival: 7.6 × 10^3 cfu/ml and 7.4 × 10^3 cfu/ml
[1]; [23]
  Average Log: 3.7 Log
  survival: 4.2 × 10^3 cfu/ml and 5.0 × 10^3 cfu/ml and 4.3 × 10^3 cfu/ml
[1]; 16% MSM, 12 μg/ml oxacillin, 72 hours
  Average Log: 2.1 Log
[1]; [24]
  Average Log: 3.91 Log
  survival: 8.3 × 10^3 cfu/ml and 8.0 × 10^3 cfu/ml
[1]; 16% MSM, 30 μg/ml oxacillin, 48 hours
  Average Log: 2.6 Log
[1]; 16% MSM, 30 μg/ml oxacillin, 72 hours
  Average Log: 1.9 Log
[1]; [25]
  Average Log: 3.83 Log
  survival: 6.9 × 10^3 cfu/ml
[1]; 16% MSM, 60 μg/ml oxacillin, 48 hours
  Average Log: 1.9 Log
[1]; 16% MSM, 60 μg/ml oxacillin, 72 hours
  Average Log: 1.8 Log
[2]; 30 μg/ml methicillin, lower end of MSM concentrations, 24 hours
  average log reduction in colony count: 3 log
[2]; 5% MSM, 60 μg/ml methicillin, 48 hours
  log reduction in colony count: 4.1 log
[2]; 6% MSM, 12 μg/ml methicillin, 48 hours
  log reduction in colony count: 4.1 log
[2]; 6% MSM, 30 μg/ml methicillin, 24 hours
  log reduction in colony count: 2.8 log
[2]; 16% MSM, 12 μg/ml methicillin, 24 hours
  log reduction: 2.2 log
[3]; 5% MSM with antibiotic (12, 30 or 60 μg/ml oxacillin or methicillin)
  average log reduction in cfu/ml: 2.2 log
[3]; 16% MSM with antibiotic (barring methicillin 60 μg/ml outlier)
  average log reduction in cfu/ml: 3.3 log

From patent publication US8217085B2 (priority 2009, dated 2012)
